Each structure is given as a SMILES string. ± gives the expanded uncertainty stated by the source.

This is an account of results in the NIST ThermoML archive (doi:10.1021/acs.jced.6b00008).

For data set [1] the following is noted: Crystal; DTA.
The nature of data set [2]: Molar enthalpy of transition or fusion. The following applies: Crystal; DSC.

As for `O=C(/C=C/c1ccc(O)c(O)c1)O[C@H](Cc1ccc(O)c(O)c1)C(=O)O` [rosmarinic acid], the Normal melting temperature in data set [1] is 160.96 ± 3.4 °C. Besides, the “Molar enthalpy of transition or fusion” value in data set [2] worked out at 3.92 ± 0.335 kcal/mol.
